Measurements from patent publication US11739122B2, “Glycopeptide antibiotic compounds, methods for producing the same, and uses thereof” (Academia Sinica, priority 2019, dated 2023).
Converted amounts (≈) assume the structure as drawn. “And” between values parts separate entries of the source, which are not always exact repeats. Equal entries are not always repeated. Structures can show the parent of a compound that is named as a salt. Where two headings read alike, the source gives them in different places.

What was measured:
MRSA ATCC 43300 = experiment: MIC, broth microdilution; type: cell-based, Staphylococcus aureus; settings: MRSA ATCC 43300
Method: (§1) Determination of Minimal Inhibitory Concentration (MIC) for Vancomycin, Teicoplanin and Tei-Analogs Versus Selected Strains
(§2) MICs were determined by the broth microdilution method. Specifically, 12 Colonies of the test strain were picked up from 18-24 hour agar cultures and freshly inoculated into broth mediums until reaching the turbidity of a 0.5 McFarland standard. The broth culture was adjusted with broth medium to approximately 1×10^8 CFUmL^−1. […] The plates were incubated in 37° C. for 18-24 hours and monitored for the wells of the positive control, where cells grew, and the wells of the negative control, where wells should not grow. The MIC value was determined for the concentration of a test compound, at which there was no visible growth in the well.

MRSA ATCC 700698 hVISA = experiment: MIC, broth microdilution; type: cell-based, Staphylococcus aureus; settings: MRSA ATCC 700698 hVISA
Method: as §1, §2

MRSA ATCC 700787 VRSA = experiment: MIC, broth microdilution; type: cell-based, Staphylococcus aureus; settings: MRSA ATCC 700787 VRSA
Method: as §1, §2

MRSA ATCC 700789 VRSA = experiment: MIC, broth microdilution; type: cell-based, Staphylococcus aureus; settings: MRSA ATCC 700789 VRSA
Method: as §1, §2

MRSA ATCC BAA-38 = experiment: MIC, broth microdilution; type: cell-based, Staphylococcus aureus; settings: MRSA ATCC BAA-38
Method: as §1, §2

MRSA ATCC BAA-39 = experiment: MIC, broth microdilution; type: cell-based, Staphylococcus aureus; settings: MRSA ATCC BAA-39
Method: as §1, §2

MRSA ATCC BAA-44 = experiment: MIC, broth microdilution; type: cell-based, Staphylococcus aureus; settings: MRSA ATCC BAA-44
Method: as §1, §2

S. aureus ATCC 29213 = experiment: MIC, broth microdilution; type: cell-based, Staphylococcus aureus; settings: SA ATCC 29213
Method: as §1, §2

E. faecalis ATCC 29302 = experiment: MIC, broth microdilution; type: cell-based; settings: EF ATCC 29302
Method: as §1, §2

VRE ATCC 700221 (vanA) = experiment: MIC, broth microdilution; type: cell-based, enterococci; settings: VRE ATCC 700221 (vanA)
Method: as §1, §2

VRE ATCC 700425 (vanC) = experiment: MIC, broth microdilution; type: cell-based, enterococci; settings: VRE ATCC 700425 (vanC)
Method: as §1, §2

VRE ATCC 700802 (vanB) = experiment: MIC, broth microdilution; type: cell-based, enterococci; settings: VRE ATCC 700802 (vanB)
Method: as §1, §2

HEK293T cells = experiment: Alamar Blue cell viability assay; type: cell-based, human; settings: up to 100 μgmL^−1; 2 and 24 h
Method: The Alamar Blue (AB) assay, which includes a redox indicator that changes color or emits fluorescence in response to a metabolic activity, was used to assess in vitro mammalian cell cytotoxicity (human embryonic kidney cells (HEK293T)) upon an antibiotic treatment. 2×10^5 cellsmL^−1 were allowed to adhere on 96-well plates overnight at 37° C. in a humidified incubator (5% CO2 atmosphere). Tested compounds were dissolved in 50% DMSO to make 1 mgmL^−1 of a stock solution. Cells were separately aliquoted with 5 μL of a test compound (final concentration: 100 μgmL^−1) and incubated. PBS and 50% DMSO, which was used to dissolve compounds, served as a control. Cell viability was triplicated and assessed at 2 and 24 hour time points for each test compound, on which the measurements followed the manufacturer protocol.

A. baumannii ATCC 19606 [1] = experiment: MIC, broth microdilution; type: cell-based, Acinetobacter baumannii
Method: as §1, §2

A. baumannii ATCC 19606 [2] = experiment: In vivo efficacy, intranasal A. baumannii infection; set-up: species or system mice; settings: BAL fluid, 24 hours post-inoculation; 24 and kanamycin 30, amikacin 15 mgkg^−1
Method: In Vivo Efficacy of r6,N-Acyl-Glc Tei Analogs
Female C57BL/6 mice (6 weeks of age; about 16-19 g, 3-5 mice per group) were intraperitoneally inoculated with 300 μL of MRSA ATCC 700787 suspension (about 10^7 CFUmL^−1). For intranasal A. baumannii (ATCC 19606) inoculation, mice were anesthetized, and inoculated intranasally with about 10^7-10^8 CFUmL^−1 A. baumannii in 50 μL of PBS. Treatments were started 1 hour after the bacterial challenge. The dose administration to mice was set as follows: teicoplanin (1) or r6,C8-Tei analog (14) 20 mgkg^−1 was intraperitoneally injected to MRSA-infected mice; amikacin (15 mgkg^−1), teicoplanin (1) (30 mgkg^−1), kanamycin (30 mgkg^−1) or r1,Me2-r6,guanidino-C8 analog (24) (30 mgkg^−1) was intraperitoneally injected to AB-infected mice. To assess bacteraemia, the test animals were sacrificed to collect 1 mL of peritoneal fluid (PF) for MRSA counting or the lungs were lavaged to collect 0.6 mL bronchoalveolar lavage (BAL) fluid for A. baumannii counting.
For AB (ATCC 19606), female C57BL/6 mice were first anesthetized by intraperitoneal injection of zoletil and then intranasally inoculated with 50 μL of bacteria in a PBS solution (about 10^7-10^8 CFUmL^−1). The treatment started 1 hour post-infection with a single dose of compound 24 (30 mgkg^−1), compound 1 (30 mgkg^−1), amikacin (15 mgkg^−1), or kanamycin (30 mgkg^−1), where saline/compound 1 and amikacin/kanamycin respectively served as negative and positive controls. To assess the density of bacteraemia, the lungs of mice were lavaged to collect 0.6 mL bronchoalveolar lavage (BAL) fluid from each mouse at 24 hours post-inoculation. For saline/compound 1 treated controls, the bacterial load was counted (about 4 log CFUmL^−1, FIG. 4B), where the bacterial load was reduced by 0.5 or 1 log CFUmL^−1 with the treatment of amikacin/kanamycin or compound 24, respectively.

N[C@H]1C(=O)N[C@@H]2Cc3ccc(c(Cl)c3)Oc3cc4cc(c3O)Oc3ccc(cc3Cl)[C@@H](O[C@@H]3O[C@H](CO)[C@@H](O)[C@H](O)[C@H]3NC(=O)CCCCc3ccc(F)cc3)[C@@H]3NC(=O)[C@H](NC(=O)[C@@H]4NC(=O)[C@@H](NC2=O)c2cc(O)cc(c2)Oc2cc1ccc2O)c1ccc(O)c(c1)-c1c(O)cc(O)cc1[C@@H](C(=O)O)NC3=O [Compound 18]
MIC (MRSA ATCC 43300): 0.031 µg/mL (≈ 0.0202 µM)
MIC (MRSA ATCC 700698 hVISA): 0.016 µg/mL (≈ 0.0104 µM)
MIC (MRSA ATCC 700787 VRSA): 0.125 µg/mL (≈ 0.0813 µM)
MIC (MRSA ATCC 700789 VRSA): 0.5 µg/mL (≈ 0.325 µM)
MIC (MRSA ATCC BAA-38): 0.016 µg/mL (≈ 0.0104 µM)
MIC (MRSA ATCC BAA-39): 0.063 µg/mL (≈ 0.041 µM)
MIC (MRSA ATCC BAA-44): 0.016 µg/mL (≈ 0.0104 µM)
MIC (S. aureus ATCC 29213): 0.063 µg/mL (≈ 0.041 µM)
MIC (E. faecalis ATCC 29302): 0.25 µg/mL (≈ 0.163 µM)
MIC (VRE ATCC 700221 (vanA)): >16 µg/mL
MIC (VRE ATCC 700425 (vanC)): 1 µg/mL (≈ 0.65 µM)
MIC (VRE ATCC 700802 (vanB)): 0.25 µg/mL (≈ 0.163 µM)
cytotoxicity to HEK293T cells (HEK293T cells): did not exhibit any observable toxicity

CC(=O)N[C@H]1[C@H](O[C@@H]2c3ccc(c(Cl)c3)Oc3cc4cc(c3O)Oc3ccc(cc3Cl)C[C@H]3NC(=O)[C@H](N(C)C)c5ccc(O)c(c5)Oc5cc(O)cc(c5)[C@H](NC3=O)C(=O)N[C@H]4C(=O)N[C@H]3C(=O)N[C@@H]2C(=O)N[C@H](C(=O)O)c2cc(O)cc(O)c2-c2cc3ccc2O)O[C@H](CO)[C@@H](O)[C@@H]1O [Compound 10, r1,Me2-6,GlcNAc Tei-pseudoaglycone]
MIC (MRSA ATCC 43300): 0.25 µg/mL (≈ 0.175 µM)
MIC (MRSA ATCC 700698 hVISA): 1 µg/mL (≈ 0.699 µM)
MIC (MRSA ATCC 700787 VRSA): 0.5 µg/mL (≈ 0.35 µM)
MIC (MRSA ATCC 700789 VRSA): 2 µg/mL (≈ 1.4 µM)
MIC (MRSA ATCC BAA-38): 0.25 µg/mL (≈ 0.175 µM)
MIC (MRSA ATCC BAA-39): 0.125 µg/mL (≈ 0.0874 µM)
MIC (MRSA ATCC BAA-44): 0.125 µg/mL (≈ 0.0874 µM)
MIC (S. aureus ATCC 29213): 0.25 µg/mL (≈ 0.175 µM)
MIC (E. faecalis ATCC 29302): 2 µg/mL (≈ 1.4 µM)
MIC (VRE ATCC 700221 (vanA)): >128 µg/mL
MIC (VRE ATCC 700425 (vanC)): 4 µg/mL (≈ 2.8 µM)
MIC (VRE ATCC 700802 (vanB)): 4 µg/mL (≈ 2.8 µM)
MIC (A. baumannii ATCC 19606 [1]; A. baumannii ATCC 19606, Table 3, first figure of cell): > 200 µM
MIC (A. baumannii ATCC 19606 [1]; A. baumannii ATCC 19606, Table 3, second figure of cell): > 285.67 µg/mL

NCC[C@H](O)C(=O)N[C@@H]1C[C@H](N)[C@@H](O[C@H]2O[C@H](CN)[C@@H](O)[C@H](O)[C@H]2O)[C@H](O)[C@H]1O[C@H]1O[C@H](CO)[C@@H](O)[C@H](N)[C@H]1O [amikacin]
bacterial load reduced by (A. baumannii ATCC 19606 [2]): 0.5 log CFUmL^−1

C#CCCC(=O)N[C@H]1[C@H](O[C@@H]2c3ccc(c(Cl)c3)Oc3cc4cc(c3O)Oc3ccc(cc3Cl)C[C@H]3NC(=O)[C@H](N)c5ccc(O)c(c5)Oc5cc(O)cc(c5)[C@H](NC3=O)C(=O)N[C@H]4C(=O)N[C@H]3C(=O)N[C@@H]2C(=O)N[C@H](C(=O)O)c2cc(O)cc(O)c2-c2cc3ccc2O)O[C@H](CO)[C@@H](O)[C@@H]1O [Compound 13]
MIC (MRSA ATCC 43300): 0.125 µg/mL (≈ 0.0868 µM)
MIC (MRSA ATCC 700698 hVISA): 0.063 µg/mL (≈ 0.0437 µM)
MIC (MRSA ATCC 700787 VRSA): 0.063 µg/mL (≈ 0.0437 µM)
MIC (MRSA ATCC 700789 VRSA): 1 µg/mL (≈ 0.694 µM)
MIC (MRSA ATCC BAA-38): 0.063 µg/mL (≈ 0.0437 µM)
MIC (MRSA ATCC BAA-39): 0.063 µg/mL (≈ 0.0437 µM)
MIC (MRSA ATCC BAA-44): 0.031 µg/mL (≈ 0.0215 µM)
MIC (S. aureus ATCC 29213): 0.063 µg/mL (≈ 0.0437 µM)
MIC (E. faecalis ATCC 29302): 0.5 µg/mL (≈ 0.347 µM)
MIC (VRE ATCC 700221 (vanA)): >16 µg/mL
MIC (VRE ATCC 700425 (vanC)): 4 µg/mL (≈ 2.78 µM)
MIC (VRE ATCC 700802 (vanB)): 4 µg/mL (≈ 2.78 µM)

NC[C@H]1O[C@H](O[C@H]2[C@H](O)[C@@H](O[C@H]3O[C@H](CO)[C@@H](O)[C@H](N)[C@H]3O)[C@H](N)C[C@@H]2N)[C@H](O)[C@@H](O)[C@@H]1O [kanamycin sulfate, reference compound]
MIC (A. baumannii ATCC 19606 [1]; Acinetobacter baumannii, ATCC19606): 25 µM and 14.6 µg/mL
MIC (A. baumannii ATCC 19606 [1]; Acinetobacter baumannii, ATCC19606, read-out: MIC on AB): 14.6 µg/mL
bacterial load reduced by (A. baumannii ATCC 19606 [2]): 0.5 log CFUmL^−1

CCCCCCCC(=O)N[C@H]1[C@H](O[C@@H]2c3ccc(c(Cl)c3)Oc3cc4cc(c3O)Oc3ccc(cc3Cl)C[C@H]3NC(=O)[C@H](N(C)C)c5ccc(O)c(c5)Oc5cc(O)cc(c5)[C@H](NC3=O)C(=O)N[C@H]4C(=O)N[C@H]3C(=O)N[C@@H]2C(=O)N[C@H](C(=O)O)c2cc(O)cc(O)c2-c2cc3ccc2O)O[C@H](CO)[C@@H](O)[C@@H]1O [Compound 20]
MIC (MRSA ATCC 43300): 0.063 µg/mL (≈ 0.0416 µM)
MIC (MRSA ATCC 700698 hVISA): 0.016 µg/mL (≈ 0.0106 µM)
MIC (MRSA ATCC 700787 VRSA): 0.016 µg/mL (≈ 0.0106 µM)
MIC (MRSA ATCC 700789 VRSA): 0.5 µg/mL (≈ 0.33 µM)
MIC (MRSA ATCC BAA-38): 0.016 µg/mL (≈ 0.0106 µM)
MIC (MRSA ATCC BAA-39): 0.016 µg/mL (≈ 0.0106 µM)
MIC (MRSA ATCC BAA-44): 0.016 µg/mL (≈ 0.0106 µM)
MIC (S. aureus ATCC 29213): 0.016 µg/mL (≈ 0.0106 µM)
MIC (E. faecalis ATCC 29302): 0.25 µg/mL (≈ 0.165 µM)
MIC (VRE ATCC 700221 (vanA)): >16 µg/mL
MIC (VRE ATCC 700425 (vanC)): 1 µg/mL (≈ 0.66 µM)
MIC (VRE ATCC 700802 (vanB)): 0.5 µg/mL (≈ 0.33 µM)
